# Patent US8952024B2, “Herbicidal pyrimidone derivatives” (E I du Pont de Nemours and Company, priority 2009, dated 2015)
# How the values were obtained:
# Type in all cases: in vivo
# [1] = test system: barnyardgrass (Echinochloa crus-galli); experiment: Test A pre-/postemergence plant response
# Summary of the method: (§1)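 Injury was scored visually after roughly ten days against untreated controls, 0 = no effect, 100 = complete control. Test chemicals in a surfactant-containing non-phytotoxic solvent were sprayed either onto soil preemergence or onto one- to two-leaf, 2–10 cm plants postemergence.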
# [2] = test system: corn (Zea mays); experiment: Test A pre-/postemergence plant response
# Summary of the method: as §1
# [3] = test system: giant foxtail (Setaria faberii); experiment: Test A pre-/postemergence plant response
# Summary of the method: as §1
# [4] = test system: large crabgrass (Digitaria sanguinalis); experiment: Test A pre-/postemergence plant response
# Summary of the method: as §1
# [5] = test system: velvetleaf (Abutilon theophrasti); experiment: Test A pre-/postemergence plant response
# Summary of the method: as §1
# [6] = test system: wheat (Triticum aestivum); experiment: Test A pre-/postemergence plant response
# Summary of the method: as §1
# [7] = test system: galium (catchweed bedstraw, Galium aparine); experiment: Test B pre-/postemergence plant response; conditions: Preemergence
# Summary of the method: (§2)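 Visual injury, 0–100 scale (100 = complete control), rated against controls after 13 to 15 days in greenhouse. Pre-emergence: seeds in loam/sand soil, treated at planting. Post-emergence: 1- to 4-leaf plants (2 to 18 cm) in peat/vermiculite medium. Compounds formulated in non-phytotoxic solvent with surfactant.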
# [8] = test system: nightshade (eastern black nightshade, Solanum ptycanthum); experiment: Test B pre-/postemergence plant response; conditions: Preemergence
# Summary of the method: as §2
# [9] = test system: sunflower (common oilseed sunflower, Helianthus annuus); experiment: Test B pre-/postemergence plant response; conditions: Preemergence
# Summary of the method: as §2
# [10] = test system: canarygrass (Phalaris minor); experiment: Test B postemergence plant response; conditions: for Canarygrass plant response rating (0 to 100 scale): 62 g ai/ha, 0 is no effect, 13 to 15 days
# Summary of the method: (§3)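 Visual ratings from 0 (no effect) to 100 (complete control), made against controls 13–15 days after treatment, kept in a greenhouse. Compounds were applied postemergence to potted plants at the 1- to 4-leaf stage (2–18 cm).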
# [11] = test system: chickweed (Stellaria media); experiment: Test B postemergence plant response; conditions: for Chickweed plant response rating (0 to 100 scale): 62 g ai/ha, 0 is no effect, 13 to 15 days
# Summary of the method: as §3
# [12] = test system: windgrass (Apera spica-venti); experiment: Test B postemergence plant response; conditions: for Windgrass plant response rating (0 to 100 scale): 62 g ai/ha, 0 is no effect, 13 to 15 days
# Summary of the method: as §3
# [13] = test system: winter barley (Hordeum vulgare); experiment: Test B postemergence plant response; conditions: for Barley plant response rating (0 to 100 scale): 62 g ai/ha, 0 is no effect, 13 to 15 days
# Summary of the method: as §3
# [14] = Postemergence, 125 g ai/ha, visual injury, 0 to 100 scale (0 no effect, 100 complete control), approx. ten days
# [15] = Postemergence, 500 g ai/ha, 0 to 100 scale, 0 = no effect, 100 = complete control, approx. ten days
# [16] = Preemergence, 125 g ai/ha, 0 to 100 scale, 0 = no effect, 100 = complete control
# [17] = Preemergence, 500 g ai/ha, visual injury, 0 to 100 scale (0 no effect, 100 complete control), approx. ten days
# [18] = 125 g ai/ha, scale 0 to 100, 0 no effect, 100 complete control
# [19] = 31 g ai/ha, scale 0 to 100 (0 no effect, 100 complete control)
# [20] = 62 g ai/ha, scale 0 to 100, 0 no effect, 100 complete control
# [21] = 16 g ai/ha, Postemergence, 0 to 100 scale
# [22] = 31 g ai/ha, postemergence, scale 0 to 100, 0 is no effect, 100 is complete control
# [23] = postemergence, 100 is complete control
# [24] = Postemergence, 125 g ai/ha, visual rating after 13 to 15 days, scale 0 (no effect) to 100 (complete control)
# [25] = Postemergence, 250 g ai/ha, scale 0 to 100 (0 no effect, 100 complete control)
# [26] = Postemergence, 125 g ai/ha, 0 to 100 scale where 0 is no effect and 100 is complete control
compound,measurement,setting,value
O=C1CCCC(O)=C1C(=O)c1cnc(-c2cccc(Br)c2)n(-c2ccccc2)c1=O [Compound 69],Barnyardgrass plant response rating,[1]; [14],90
same,"Plant response rating, Barnyardgrass",[1]; [15],100
same,"Plant response rating, Barnyardgrass",[1]; [16],10
same,"Plant response rating, Barnyardgrass",[1]; [17],60
same,Corn plant response rating,[2]; [14],20
same,"Plant response rating, Corn",[2]; [15],40
same,"Plant response rating, Corn",[2]; [16],0
same,"Plant response rating, Corn",[2]; [17],0
same,"Foxtail, Giant plant response rating",[3]; [14],80
same,"Plant response rating, Foxtail, Giant",[3]; [15],90
same,"Plant response rating, Foxtail, Giant",[3]; [16],40
same,"Plant response rating, Foxtail, Giant",[3]; [17],70
same,"Crabgrass, Large plant response rating",[4]; [14],80
same,"Plant response rating, Crabgrass, Large",[4]; [15],100
same,"Plant response rating, Crabgrass, Large",[4]; [16],90
same,"Plant response rating, Crabgrass, Large",[4]; [17],100
same,Velvetleaf plant response rating,[5]; [14],100
same,"Plant response rating, Velvetleaf",[5]; [15],100
same,"Plant response rating, Velvetleaf",[5]; [16],70
same,"Plant response rating, Velvetleaf",[5]; [17],100
same,Wheat plant response rating,[6]; [14],0
same,"Plant response rating, Wheat",[6]; [15],10
same,"Plant response rating, Wheat",[6]; [16],0
same,"Plant response rating, Wheat",[6]; [17],10
same,"Plant response rating, Galium",[7]; [18],0
same,"Plant response rating, Nightshade","[8]; 16 g ai/ha, scale 0 to 100, 0 no effect, 100 complete control",80
same,"Plant response rating, Nightshade",[8]; [19],95
same,"Plant response rating, Nightshade",[8]; [20],98
same,"Plant response rating, Nightshade",[8]; [18],98
same,"Plant response rating, Sunflower",[9]; [19],0
same,"Plant response rating, Sunflower",[9]; [20],0
same,"Plant response rating, Sunflower",[9]; [18],5
same,"Plant response rating, Canarygrass",[10]; [21],0
same,"Plant response rating, Canarygrass",[10]; [22],0
same,Canarygrass plant response rating (0 to 100 scale),[10]; [23],0
same,"Plant response rating, Canarygrass",[10]; [24],25
same,"Plant response rating, Chickweed",[11]; [21],95
same,"Plant response rating, Chickweed",[11]; [22],98
same,Chickweed plant response rating (0 to 100 scale),[11]; [23],98
same,"Plant response rating, Chickweed",[11]; [24],98
same,"Plant response rating, Windgrass",[12]; [21],40
same,"Plant response rating, Windgrass",[12]; [22],60
same,Windgrass plant response rating (0 to 100 scale),[12]; [23],60
same,"Plant response rating, Windgrass",[12]; [24],80
same,"Plant response rating, Barley",[13]; [21],0
same,"Plant response rating, Barley",[13]; [22],5
same,Barley plant response rating (0 to 100 scale),[13]; [23],5
same,"Plant response rating, Barley",[13]; [24],15
CCCc1ncc(C(=O)C2=C(O)CCCC2=O)c(=O)n1CCC [Compound 72],Barnyardgrass plant response rating,[1]; [14],80
same,"Plant response rating, Barnyardgrass",[1]; [15],90
same,"Plant response rating, Barnyardgrass",[1]; [16],10
same,"Plant response rating, Barnyardgrass",[1]; [17],60
same,Corn plant response rating,[2]; [14],0
same,"Plant response rating, Corn",[2]; [15],10
same,"Plant response rating, Corn",[2]; [16],0
same,"Plant response rating, Corn",[2]; [17],20
same,"Foxtail, Giant plant response rating",[3]; [14],40
same,"Plant response rating, Foxtail, Giant",[3]; [15],60
same,"Plant response rating, Foxtail, Giant",[3]; [16],0
same,"Plant response rating, Foxtail, Giant",[3]; [17],30
same,"Crabgrass, Large plant response rating",[4]; [14],80
same,"Plant response rating, Crabgrass, Large",[4]; [15],90
same,"Plant response rating, Crabgrass, Large",[4]; [16],70
same,"Plant response rating, Crabgrass, Large",[4]; [17],100
same,Velvetleaf plant response rating,[5]; [14],100
same,"Plant response rating, Velvetleaf",[5]; [15],100
same,"Plant response rating, Velvetleaf",[5]; [16],90
same,"Plant response rating, Velvetleaf",[5]; [17],100
same,Wheat plant response rating,[6]; [14],0
same,"Plant response rating, Wheat",[6]; [15],0
same,"Plant response rating, Wheat",[6]; [16],0
same,"Plant response rating, Wheat",[6]; [17],0
same,"Plant response rating, Galium","[7]; 250 g ai/ha, 0 to 100 scale",85
same,"Plant response rating, Galium",[7]; [19],0
same,"Plant response rating, Galium",[7]; [20],85
same,"Plant response rating, Galium",[7]; [18],85
same,"Plant response rating, Nightshade",[8]; [19],95
same,"Plant response rating, Nightshade",[8]; [20],95
same,"Plant response rating, Nightshade",[8]; [18],98
same,"Plant response rating, Sunflower",[9]; [19],25
same,"Plant response rating, Sunflower",[9]; [20],25
same,"Plant response rating, Sunflower",[9]; [18],65
same,"Plant response rating, Canarygrass",[10]; [22],0
same,Canarygrass plant response rating (0 to 100 scale),[10]; [23],0
same,"Plant response rating, Canarygrass",[10]; [24],0
same,"Plant response rating, Canarygrass",[10]; [25],0
same,"Plant response rating, Chickweed",[11]; [22],70
same,Chickweed plant response rating (0 to 100 scale),[11]; [23],85
same,"Plant response rating, Chickweed",[11]; [24],90
same,"Plant response rating, Chickweed",[11]; [25],90
same,"Plant response rating, Windgrass",[12]; [22],5
same,Windgrass plant response rating (0 to 100 scale),[12]; [23],20
same,"Plant response rating, Windgrass",[12]; [24],60
same,"Plant response rating, Windgrass",[12]; [25],65
same,"Plant response rating, Barley",[13]; [22],0
same,Barley plant response rating (0 to 100 scale),[13]; [23],0
same,"Plant response rating, Barley",[13]; [24],0
same,"Plant response rating, Barley",[13]; [25],0
CCCCn1c(CCC)ncc(C(=O)C2=C(O)CCCC2=O)c1=O [Compound 75],"Plant response rating, Barnyardgrass",[1]; [26],80
same,"Plant response rating, Barnyardgrass",[1]; [15],90
same,"Plant response rating, Barnyardgrass",[1]; [16],40
same,"Plant response rating, Barnyardgrass",[1]; [17],80
same,"Plant response rating, Corn",[2]; [26],0
same,"Plant response rating, Corn",[2]; [15],50
same,"Plant response rating, Corn",[2]; [16],0
same,"Plant response rating, Corn",[2]; [17],0
same,"Plant response rating, Foxtail, Giant",[3]; [26],80
same,"Plant response rating, Foxtail, Giant",[3]; [15],90
same,"Plant response rating, Foxtail, Giant",[3]; [16],50
same,"Plant response rating, Foxtail, Giant",[3]; [17],70
same,"Plant response rating, Crabgrass, Large",[4]; [26],90
same,"Plant response rating, Crabgrass, Large",[4]; [15],90
same,"Plant response rating, Crabgrass, Large",[4]; [16],90
same,"Plant response rating, Crabgrass, Large",[4]; [17],100
same,"Plant response rating, Velvetleaf",[5]; [26],100
same,"Plant response rating, Velvetleaf",[5]; [15],100
same,"Plant response rating, Velvetleaf",[5]; [16],90
same,"Plant response rating, Velvetleaf",[5]; [17],100
same,"Plant response rating, Wheat",[6]; [26],0
same,"Plant response rating, Wheat",[6]; [15],50
same,"Plant response rating, Wheat",[6]; [16],0
same,"Plant response rating, Wheat",[6]; [17],0
same,"Plant response rating, Galium",[7]; [19],60
same,"Plant response rating, Galium",[7]; [20],85
same,"Plant response rating, Galium",[7]; [18],95
same,Galium plant response rating,"[7]; 250 g ai/ha, 0 to 100 scale",98
same,"Plant response rating, Nightshade",[8]; [19],95
same,"Plant response rating, Nightshade",[8]; [20],98
same,"Plant response rating, Nightshade",[8]; [18],98
same,Nightshade plant response rating,"[8]; 250 g ai/ha, 0 to 100 scale",100
same,"Plant response rating, Sunflower",[9]; [19],30
same,"Plant response rating, Sunflower",[9]; [20],55
same,"Plant response rating, Sunflower",[9]; [18],75
same,Sunflower plant response rating,"[9]; 250 g ai/ha, 0 to 100 scale",85
same,"Plant response rating, Canarygrass",[10]; [22],0
same,Canarygrass plant response rating (0 to 100 scale),[10]; [23],0
same,"Plant response rating, Canarygrass",[10]; [24],0
same,"Plant response rating, Canarygrass",[10]; [25],0
same,"Plant response rating, Chickweed",[11]; [22],85
same,Chickweed plant response rating (0 to 100 scale),[11]; [23],90
same,"Plant response rating, Chickweed",[11]; [24],98
same,"Plant response rating, Chickweed",[11]; [25],100
same,"Plant response rating, Windgrass",[12]; [22],30
same,Windgrass plant response rating (0 to 100 scale),[12]; [23],50
same,"Plant response rating, Windgrass",[12]; [24],70
same,"Plant response rating, Windgrass",[12]; [25],90
same,"Plant response rating, Barley",[13]; [22],0
same,Barley plant response rating (0 to 100 scale),[13]; [23],0
same,"Plant response rating, Barley",[13]; [24],0
same,"Plant response rating, Barley",[13]; [25],0
